Test results from patent publication US12421225B2, “Heteroaromatic amide derivative and medicament containing the same” (KAKEN PHARMACEUTICAL CO., LTD., priority 2018, dated 2025).

Molecular target: human Nav1.7 (Homo sapiens (Human), UniProt Q15858)
Test: Human Nav1.7 inhibitory activity evaluation (automated patch clamp QPatch16X, HEK293A cells stably expressing human Nav1.7 and human Navβ1)
Type: cell-based
Settings: HEK293A cells stably expressing human Nav1.7 and human Navβ1, automated patch clamp QPatch16X
Protocol: Test Example 1: Human Nav1.7 Inhibitory Activity Evaluation
A cell line in which human Nav1.7 and human Navβ1 subunits were stably expressed in HEK293A cells was used. Dulbecco's Modified Eagle Medium (DMEM) supplemeted with 10% fetal bovine serum, 600 μg/ml geneticin, and 2 μg/ml blasticidin S were used as culture medium under the conditions of 37° C. and 5% CO2 in T175 flasks to carry out culturing. When 60-80% confluence was reached, the cells were detached and a cell suspension of about 0.5-5.0×10^6 cells/mL was prepared. The amount of current through human Nav1.7 was recorded using a fully automatic patch clamp device QPatch16X (Sophion Biosciences) at room temperature. As the extracellular solution, the solution of 145 mM NaCl, 4 mM KCl, 1 mM MgCl2, 2 mM CaCl2, 10 mM Glucose, 10 mM 4-(2-hydroxyethyl)-1-piperazine ethanesulfonic acid (HEPES) at pH 7.4 was used. As the intracellular solution, the solution of 135 mM CsF, ⅕ mM glycol ether diaminetetraacetic acid (EGTA)/CsOH, 10 mM HEPES, 10 mM NaCl at pH 7.3 was used. The test compounds were dissolved in dimethyl sulfoxide (DMSO) and diluted with the extracellular solution to attain the DMSO concentration of 0.1% at the time of assay.
The current response was obtained at a sampling frequency of 25 kHz, and noise was removed with a 3 kHz low-pass filter. The holding potential was −100 mV. Correction of the leakage current was carried out by applying a step pulse of −120 mV before the test pulse. In order to investigate inhibitory action of the test compound, the following test pulse was given: Namely, after depolarizing pulse of −10 mV was applied for 50 milliseconds, it was fixed at −120 mV for 500 milliseconds; a potential at which about 30-40% of the channel was inactivated was maintained for 15 seconds, then fixed again at −120 mV for 100 milliseconds, and finally a −10 mV depolarization pulse was given for 50 milliseconds. Test pulses were given before and after the test compound addition.
The inhibitory activity of the test compound was determined based on the amount of inward current generated by the second depolarization pulse, and the 50% inhibitory concentration (IC50) was calculated from the concentration-response curve.

Sequence of human Nav1.7 (Q15858 whole entry): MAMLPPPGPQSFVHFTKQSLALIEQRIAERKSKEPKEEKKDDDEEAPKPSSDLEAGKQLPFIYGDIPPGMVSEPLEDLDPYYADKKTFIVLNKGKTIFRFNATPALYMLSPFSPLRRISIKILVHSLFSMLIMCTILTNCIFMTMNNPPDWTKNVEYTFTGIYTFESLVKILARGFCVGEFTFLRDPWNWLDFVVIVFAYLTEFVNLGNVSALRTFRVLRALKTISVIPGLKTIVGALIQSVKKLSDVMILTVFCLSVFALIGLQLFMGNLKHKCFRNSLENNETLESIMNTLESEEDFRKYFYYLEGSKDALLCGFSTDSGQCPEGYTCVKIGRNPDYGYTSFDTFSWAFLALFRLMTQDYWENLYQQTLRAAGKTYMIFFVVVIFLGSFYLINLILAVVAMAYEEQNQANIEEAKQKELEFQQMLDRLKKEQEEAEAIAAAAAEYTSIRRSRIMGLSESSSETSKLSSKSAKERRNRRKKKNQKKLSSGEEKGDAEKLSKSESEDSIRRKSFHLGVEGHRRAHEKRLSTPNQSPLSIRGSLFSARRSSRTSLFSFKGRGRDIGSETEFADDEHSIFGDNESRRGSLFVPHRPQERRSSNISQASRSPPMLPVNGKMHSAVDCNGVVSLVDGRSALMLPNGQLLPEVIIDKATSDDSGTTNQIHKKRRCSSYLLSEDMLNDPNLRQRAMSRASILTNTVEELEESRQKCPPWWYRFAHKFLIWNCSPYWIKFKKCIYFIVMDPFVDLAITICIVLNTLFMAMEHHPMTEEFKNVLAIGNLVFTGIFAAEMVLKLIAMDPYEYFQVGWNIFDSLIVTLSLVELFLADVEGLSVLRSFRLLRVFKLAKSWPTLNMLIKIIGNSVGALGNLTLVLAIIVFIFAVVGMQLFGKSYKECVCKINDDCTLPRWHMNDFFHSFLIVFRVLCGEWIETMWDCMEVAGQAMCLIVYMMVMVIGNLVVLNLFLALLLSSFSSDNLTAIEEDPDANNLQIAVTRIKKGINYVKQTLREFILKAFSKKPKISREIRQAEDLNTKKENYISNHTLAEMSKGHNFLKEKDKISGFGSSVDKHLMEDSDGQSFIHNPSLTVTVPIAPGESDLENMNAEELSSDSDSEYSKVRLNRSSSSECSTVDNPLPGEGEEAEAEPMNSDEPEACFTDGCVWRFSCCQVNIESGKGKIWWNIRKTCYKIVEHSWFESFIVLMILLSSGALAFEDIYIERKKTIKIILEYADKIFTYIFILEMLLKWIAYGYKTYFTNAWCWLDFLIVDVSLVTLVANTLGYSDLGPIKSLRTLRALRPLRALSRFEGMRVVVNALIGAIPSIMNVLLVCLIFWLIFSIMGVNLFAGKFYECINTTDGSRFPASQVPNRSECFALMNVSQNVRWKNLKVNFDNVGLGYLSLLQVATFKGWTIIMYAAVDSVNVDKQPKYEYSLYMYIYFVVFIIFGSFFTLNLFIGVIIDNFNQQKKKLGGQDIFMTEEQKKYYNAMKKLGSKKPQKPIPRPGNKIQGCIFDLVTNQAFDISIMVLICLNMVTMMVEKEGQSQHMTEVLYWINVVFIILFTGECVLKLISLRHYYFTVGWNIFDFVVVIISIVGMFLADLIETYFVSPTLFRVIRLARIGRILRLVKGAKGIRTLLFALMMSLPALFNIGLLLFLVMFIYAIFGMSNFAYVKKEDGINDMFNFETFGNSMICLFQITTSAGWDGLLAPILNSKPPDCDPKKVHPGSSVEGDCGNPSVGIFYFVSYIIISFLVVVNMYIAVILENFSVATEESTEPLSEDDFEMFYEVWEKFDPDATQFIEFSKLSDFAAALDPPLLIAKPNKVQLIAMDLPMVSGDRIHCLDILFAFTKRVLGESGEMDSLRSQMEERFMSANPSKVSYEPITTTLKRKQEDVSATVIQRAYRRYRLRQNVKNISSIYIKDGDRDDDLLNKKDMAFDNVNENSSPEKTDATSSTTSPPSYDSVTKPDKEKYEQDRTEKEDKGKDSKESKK
Sequence of human Nav1.7 (Q07699 19-218 partner): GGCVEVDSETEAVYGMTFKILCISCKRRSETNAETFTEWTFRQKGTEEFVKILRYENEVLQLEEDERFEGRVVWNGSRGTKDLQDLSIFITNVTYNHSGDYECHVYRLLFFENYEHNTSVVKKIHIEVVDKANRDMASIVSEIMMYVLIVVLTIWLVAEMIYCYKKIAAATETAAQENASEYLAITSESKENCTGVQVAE

N#Cc1ccc2c(c1)C[C@@H](NC(=O)c1cc3n(n1)CCC(CC1CC1)O3)CO2 (single isomer, unassigned) [97 (isomer A)] and O=C(N[C@H]1COc2ccc(CC(F)F)cc2C1)c1cc2n(n1)CCC(COC(F)F)O2 (single isomer, unassigned) [138 (isomer A)] cannot be ordered by IC50: less than 1 µM for the first, less than 1 µM for the second.

Work on O=C(N[C@H]1COc2ccc(CC(F)F)cc2C1)c1cc2n(n1)CCC(COC(F)F)O2 (single isomer, unassigned) [138 (isomer B)] yielded an IC50 of less than 10 µM.

Same assay, conditions: human Nav1.7, automated patch clamp

O=C(N[C@H]1COc2ccc(COCC(F)(F)F)cc2C1)c1cc2n(n1)CC(CC1CCOCC1)O2 (mixture of isomers) [Example 605] and O=C(N[C@H]1COc2ccc(COCC(F)(F)F)cc2C1)c1cc2n(n1)CCC(C(F)F)O2 (single isomer, unassigned) [163 (isomer B)] cannot be ordered by IC50: less than 1 µM for the first, less than 10 µM for the second.

N#Cc1ccc2c(c1)C[C@@H](NC(=O)c1cc3n(n1)CCC(CCOC(F)(F)F)O3)CO2 (single isomer, unassigned) [144 (isomer A)] and N#Cc1ccc2c(c1)C[C@@H](NC(=O)c1cc3n(n1)CC(CCOC(F)(F)F)O3)CO2 (single isomer, unassigned) [209 (isomer A)] cannot be ordered by IC50: less than 1 µM for the first, less than 10 µM for the second.

N#Cc1ccc2c(c1)C[C@@H](NC(=O)c1cc3n(n1)CCC(CCOC(F)F)O3)CO2 (single isomer, unassigned) [146 (isomer A)] and N#Cc1ccc2c(c1)C[C@@H](NC(=O)c1cc3n(n1)CC(CCCOC(F)F)O3)CO2 (single isomer, unassigned) [248 (isomer B)] cannot be ordered by IC50: less than 10 µM for the first, less than 10 µM for the second.

O=C(N[C@H]1COc2ccc(CC(F)F)cc2C1)c1cc2n(n1)CCC(CCOC(F)F)O2 (single isomer, unassigned) [148 (isomer A)] and O=C(N[C@H]1COc2ccc(CCOC(F)F)cc2C1)c1cc2n(n1)CCC(C(F)F)O2 (single isomer, unassigned) [165 (isomer A)] cannot be ordered by IC50: less than 1 µM for the first, less than 1 µM for the second.

O=C(N[C@H]1COc2ccc(COCC(F)(F)F)cc2C1)c1cc2n(n1)CCC(CCOC(F)F)O2 (single isomer, unassigned) [150 (isomer A)] and O=C(N[C@H]1COc2ccc(COCC(F)(F)F)cc2C1)c1cc2n(n1)CCC(CN1CCC(F)(F)C1)O2 (single isomer, unassigned) [154 (isomer A)] cannot be ordered by IC50: less than 1 µM for the first, less than 10 µM for the second.

N#Cc1ccc2c(c1)C[C@@H](NC(=O)c1cc3n(n1)CCC(CSC(F)(F)F)O3)CO2 (single isomer, unassigned) [156 (isomer B)] and CC(C)(F)C1CCn2nc(C(=O)N[C@H]3COc4ccc(C#N)cc4C3)cc2O1 (single isomer, unassigned) [547 (isomer B)] cannot be ordered by IC50: less than 10 µM for the first, less than 10 µM for the second.

O=C(N[C@H]1COc2ccc(Cl)cc2C1)c1cc2n(n1)CCC(C(F)F)O2 (single isomer, unassigned) [158 (isomer B)] and O=C(N[C@H]1COc2ccc(C(F)(F)F)cc2C1)c1cc2n(n1)CCC(C(F)F)O2 (single isomer, unassigned) [161 (isomer B)] cannot be ordered by IC50: less than 10 µM for the first, less than 10 µM for the second.

O=C(N[C@H]1COc2ccc(CCOC(F)F)cc2C1)c1cc2n(n1)CCC(C(F)F)O2 (single isomer, unassigned) [165 (isomer B)] and O=C(N[C@H]1COc2ccc(CCOC(F)F)cc2C1)c1cc2n(n1)CC(CCN1CC(F)(F)C1)O2 (single isomer, unassigned) [238 (isomer A)] cannot be ordered by IC50: less than 10 µM for the first, less than 1 µM for the second.

O=C(N[C@H]1COc2ccc(CC(F)F)cc2C1)c1cc2n(n1)CCC(C(F)(F)F)O2 (single isomer, unassigned) [173 (isomer B)] and O=C(N[C@H]1COc2ccc(CC(F)F)cc2C1)c1cc2n(n1)CC(COC(F)(F)F)O2 (single isomer, unassigned) [198 (isomer A)] cannot be ordered by IC50: less than 10 µM for the first, less than 10 µM for the second.

O=C(N[C@H]1COc2ccc(COCC(F)(F)F)cc2C1)c1cc2n(n1)CC(C(F)(F)F)O2 (single isomer, unassigned) [184 (isomer B)] and O=C(N[C@H]1COc2ccc(CC(F)(F)F)cc2C1)c1cc2n(n1)CC(COCC(F)(F)F)O2 (single isomer, unassigned) [192 (isomer B)] cannot be ordered by IC50: less than 10 µM for the first, less than 1 µM for the second.

Cc1cnc(-c2ccc3c(c2)C[C@@H](NC(=O)c2cc4n(n2)CC(COCC(F)(F)F)O4)CO3)cn1 (single isomer, unassigned) [194 (isomer A)] and Cn1ccc(-c2ccc3c(c2)C[C@@H](NC(=O)c2cc4n(n2)CC(CCOCC(F)(F)F)O4)CO3)n1 (single isomer, unassigned) [206 (isomer A)] cannot be ordered by IC50: less than 10 µM for the first, less than 1 µM for the second.

O=C(N[C@H]1COc2ccc(CC(F)F)cc2C1)c1cc2n(n1)CC(CCOC(F)(F)F)O2 (single isomer, unassigned) [211 (isomer A)] and O=C(N[C@H]1COc2ccc(CCOC(F)(F)F)cc2C1)c1cc2n(n1)CC(CCN1CC(F)(F)C1)O2 (single isomer, unassigned) [240 (isomer A)] cannot be ordered by IC50: less than 1 µM for the first, less than 10 µM for the second.

O=C(N[C@H]1COc2ccc(-c3cnccn3)cc2C1)c1cc2n(n1)CC(CCOC(F)F)O2 (single isomer, unassigned) [223 (isomer A)] and Cc1ccc2c(c1)C[C@@H](NC(=O)c1cc3n(n1)CC(CCNCC(F)(F)F)O3)CO2 (single isomer, unassigned) [228 (isomer B)] cannot be ordered by IC50: less than 10 µM for the first, less than 10 µM for the second.

O=C(N[C@H]1COc2ccc(C(F)(F)F)cc2C1)c1cc2n(n1)CC(CCNCC(F)(F)F)O2 (single isomer, unassigned) [230 (isomer B)] and O=C(N[C@H]1COc2ccc(C(F)(F)F)cc2C1)c1cc2n(n1)CC(CCN1CCC(F)(F)CC1)O2 (single isomer, unassigned) [242 (isomer A)] cannot be ordered by IC50: less than 10 µM for the first, less than 1 µM for the second.

O=C(N[C@H]1COc2ccc(CCOC(F)(F)F)cc2C1)c1cc2n(n1)CC(CCN1CC(F)(F)C1)O2 (single isomer, unassigned) [240 (isomer B)] and O=C(N[C@H]1COc2ccc(CC(F)(F)F)cc2C1)c1cc2n(n1)CC(CCN1CCC(F)(F)C1)O2 (single isomer, unassigned) [241 (isomer A)] cannot be ordered by IC50: less than 10 µM for the first, less than 1 µM for the second.

N#Cc1ccc2c(c1)C[C@@H](NC(=O)c1cc3n(n1)CCC(OC(F)(F)F)CO3)CO2 (single isomer, unassigned) [253 (isomer A)] and N#Cc1ccc2c(c1)C[C@@H](NC(=O)c1cc3n(n1)CCC(OCC(F)(F)F)CO3)CO2 (single isomer, unassigned) [255 (isomer A)] cannot be ordered by IC50: less than 10 µM for the first, less than 10 µM for the second.

N#Cc1ccc2c(c1)C[C@@H](NC(=O)c1cc3n(n1)CCC(OC(F)(F)F)CO3)CO2 (single isomer, unassigned) [253 (isomer B)] and N#CC1(COCC2CCn3nc(C(=O)N[C@H]4COc5ccc(C(F)(F)F)cc5C4)cc3O2)CC1 (single isomer, unassigned) [554 (isomer B)] cannot be ordered by IC50: less than 10 µM for the first, less than 10 µM for the second.

O=C(N[C@H]1COc2ccc(C(F)(F)F)cc2C1O)c1cc2n(n1)CCC(C(F)F)O2 (single isomer, unassigned) [534 (isomer A)] and O=C(N[C@H]1COc2ccc(C(F)(F)F)cc2C1O)c1cc2n(n1)CC(CCOCC(F)(F)F)O2 (single isomer, unassigned) [600 (isomer A)] cannot be ordered by IC50: less than 10 µM for the first, less than 10 µM for the second.

In the case of O=C(N[C@H]1COc2ccc(C(F)(F)F)cc2C1O)c1cc2n(n1)CCC(C(F)F)O2 (single isomer, unassigned) [534 (isomer B)], the IC50 is reported as less than 10 µM.
